System: PARP-1
Experiment: PARP-1 regulation by purified histones in vitro, pADPr detected on Western blot
Format: biochemical
Settings: PARP-1 pre-incubated with purified histone, then mixed with NAD; FIG. 2A, 2B
Description: FIGS. 2A-D show PARP-1 protein regulation by histones (poly(ADP-ribose) polymer is denoted “pADPr”). […] Full-length PARP-1 protein (left) and PARP-1 protein cleaved by Caspase 3 (right) were pre-incubated with randomly broken DNA or core histone H4, followed by mixing with NAD. The products of PARP-1 enzymatic activity, poly(ADP-ribose), were detected after PAGE on a Western blot using the anti-pADPr antibody. […] PARP-1 was pre-incubated with different coregulators, followed by mixing with NAD. The amount of the product of PARP-1 enzymatic activity, poly(ADP-ribose), was detected after PAGE on a Western blot using the anti-Change(s) pADPr antibody and quantified independently using the Image Quant.
The two pathways described in Example 1 can be separated in vitro by cleaving Zn-fingers from the PARP-1 protein using caspase 3. This isoform of PARP-1 can be still activated by H4, but not by DNA (FIG. 2, panel A). […] Although histones H2Av and H2AvSE inhibit PARP-1 by themselves, when contained inside of a nucleosome they facilitate PARP-1 interaction with H4 and thereby activate PARP-1 (FIG. 2 panel D). […] Without intending to be limited to any particular theory or mechanism of action, it is believed that interactions with histones play an important for PARP-1 activation in vivo in genotoxic stress response and in transcriptional pathways.

H2Av: purified histone variant H2Av
PARP-1 activation (poly(ADP-ribose) production): does not activate PARP-1
